Laboratory results published in US6891063B1, “Salts of asiatic and madecassic acid suitable for the preparation of pharmaceutical and cosmetic compositions” (Euphar Group S.r.l., priority 1999, dated 2005).

Columns and labels:
[1] = test system: Croton oil induced oedema in the mouse ear; assay: Test of topical antiinflammatory activity: Croton oil dermatitis in the mouse ear; format: in vivo; settings: for ID50 (dose level able to reduce by 50% the oedematous response): linear interpolation from the dose-response relationship, indomethacin value confirmed from past data; for Inhibition (%) of oedema / Oedema (mg) m ± E.S.: 6 hours
Description: 3. Test of Topical Antiinflammatory Activity
The antiinflammatory activity of Asialene and L-Asialene was evaluated in comparison to that of the NSAID indomethacin. As experimental model, the Croton oil dermatitis induced in the mouse ear was used (Tubaro et al., Agents & Actions 17: 347-349).
The experimental inflammation was induced on the right ear (surface: about 1 cm^2) of anaesthetised mice (145 mg/kg ketamine hydrochloride i.p.) by application of 80 μg of Croton oil (Sigma-Italy) in 15 μl acetone on the right ear of mice, the left remaining untreated. The tested substances were dissolved in the Croton oil solution. Six hours after the dermatitis induction, the animals were sacrificed and a punch (6 mm diameter) was excised from both the treated and the untreated ears and weighed. The Croton oil induced oedema was quantified by measuring the difference in weight between the treated and untreated (opposite) ear samples. The anti-oedema activity was expressed as percent inhibition of the oedematous response in animals treated with the test substances in comparison to the animals treated with the irritant alone. Male albino Swiss mice CD-1 (Harlan-Italy), weighing 20-32 g, were used. For each substance and dose level, 10 animals were used.
The effects on the vascular response were evaluated as percent oedema inhibition. […] For each substance, the dose level able to reduce by 50% the oedematous response (ID50) was calculated by linear interpolation from the dose-response relationship.
Asialene and L-Asialene were administered at equimolar doses.

[2] = prior art statement; cited from earlier work
[3] = test system: human endothelial cells; assay: Production of PG1 (6-Keto PGF1, RIA) from human endothelial cells in culture; format: cell-based; settings: Asialene 1.5 μg/ml, culture medium + EtOH 0.75 g/dl
Description: (§1) 1. Test of Production of PG1 and of Fibronectin from Human Endothelial Cells in Culture.
The activity of the salt prepared in the Example 1, indicated as Asialene, on cicatrization was evaluated by an in vitro test which allows to deduce the effects of the substance on the vascular permeability and on the cicatrization.
The test consists in the evaluation of the production of PG1 from cells extracted by collagenase from vein of human omphalic funicle suspended and seeded in a suitable culture medium (E199+FCS 20%+L-Glutamine 2 mM+Penicillin 200 U/ml+Streptomycin 200 μg/ml) cultured in 75 or 25 ml flasks for 48-72 hours.
After removing the cells with 0.05% Trypsin and 0.02% EDTA the subcultures were prepared using secondary cultures seeded on a 35 mm Petri dish, kept in an incubator with 5% CO2 and 100% humidity. For the evaluation of the cell morphology and confluence and the PG1 production, about 300,000 cells/ml of culture medium were used carrying out the count in a Burker chamber, following three schemes: • 1. Cells+culture medium+EtOH(0.75 g/dl) • 2. Cells+culture medium+EtOH(0.75 g/dl)+FTT([…]) • 3. […]
The cultures were evaluated with an inverse light microscope, at 24 and 48 hours monitoring cell attachment and growth while on supernatant aliquots the stable metabolite of the prostacyclin (6-Keto PGF1) was assayed with RIA method. […]

[4] = test system: human endothelial cells; assay: Fibronectin evaluation (immunofluorescence, intercellular strands) in human endothelial cells in culture; format: cell-based; settings: 1.5 μg/ml; after 48 hours; culture medium + EtOH 0.75 g/dl
Description: as §1
For the Fibronectin evaluation, the primary cultures were resuspended in 0.05% Trypsin/0.02% EDTA. The cells, washed twice in Hanks solution, were counted in order to assure at least 300,000 cells/ml and seeded. After 48 hours the supernatant was removed and the slides were prepared, which after being washed 2 times with PBS, and dried, were fixed in acetic acid/ethanol for 30 minutes; a washing with PBS was then carried out and added the polyclonal rabbit anti-human fibronectin antibody (1:40, Dako). After incubation at room temperature for 30 minutes, it was washed with PBS and the fluoresceinated anti-rabbit immunoglobulin antibody was added (1:100, Dako). The slides were left in incubation for 30 minutes and then mounted on an object holder and read with a fluorescence electronic microscope.
In the following table, the numbers relating to fibronectin intercellular strands (1:100 scale) are reported.

[5] = test system: platelet; assay: Evaluation of the platelet aggregation inhibiting effect in PRP; format: cell-based, human; settings: 70 μg/ml
Description: 2. Evaluation of the Platelet Aggregation Inhibiting Effect
Blood taken from healthy volunteers not submitted to pharmacological therapy during one week, was gathered in polyethylene test-tubes containing 3.8% sodium citrate in 1:9 ratio, and centrifuged at 1000 g for 10 minutes in order to obtain plasma having a high platelet content (PRP) and at 3000 g for 15 minutes in order to obtain plasma having a low platelet content (PPP). Two […] PRP samples (300,000+/−10000 platelet/ml final concentration) were submitted to incubation at 37° C. for 60 seconds in presence of 100 μl FTT (700 μg/ml) and 10 μl of Asialene ([…]) respectively. Each sample was divided in three portions which were treated with 10 μl of a platelet aggregation agent, ADP ([…] final concentration), collagen (4 μg/ml final concentration) and arachidonic acid (0.2 mg/ml final concentration) respectively, and the aggregation was recorded for 4 minutes.

## COc1ccc2c(c1)c(CC(=O)O)c(C)n2C(=O)c1ccc(Cl)cc1 [Indomethacin, indomethacin, reference compound]
[1]
  ID50 (dose level able to reduce by 50% the oedematous response): 90 μg/cm^2
[1]; topical dose 90 μg/cm^2
  Inhibition (%) of oedema: 49.3%
  Oedema (mg) m ± E.S.: 3.5 ± 0.4 mg

## C[C@@H]1CC[C@]2(C(=O)O)CC[C@]3(C)C(=CCC4[C@@]5(C)C[C@@H](O)[C@H](O)[C@@](C)(CO)C5CC[C@]43C)C2[C@H]1C (stereo partly drawn) [asiatic, 2α, 3β, 23-trihydroxyurs-12-en-28-oic acid]
[2]
  solubility in water: almost total insolubility in water

## C[C@H]1[C@H](C)CC[C@]2(C(=O)O)CC[C@]3(C)C(=CC[C@@H]4[C@@]5(C)C[C@@H](O)[C@H](O)[C@@](C)(CO)[C@@H]5[C@H](O)C[C@]43C)[C@H]12 [madecassic acid]
[2]
  solubility in water: almost total insolubility in water

## Salt of the Asiatic Acid with Ethylenediamine [Asialene]
[3]; 24 h
  6-Keto PGF1: 980 µg/mL
[3]; 48 h
  6-Keto PGF1: 889 µg/mL
[1]
  ID50 (dose level able to reduce by 50% the oedematous response): 62 μg/cm^2
[1]; topical dose 30 μg/cm^2
  Inhibition (%) of oedema: 27.5%
[1]; topical dose 30 μg/cm^2, control 6.9 ± 0.2
  Oedema (mg) m ± E.S.: 5.0 ± 0.4 mg
[1]; topical dose 100 μg/cm^2
  Inhibition (%) of oedema: 68.1%
[1]; topical dose 100 μg/cm^2, control 6.9 ± 0.2
  Oedema (mg) m ± E.S.: 2.2 ± 0.5 mg
[1]; topical dose 300 μg/cm^2
  Inhibition (%) of oedema: 91.3%
[1]; topical dose 300 μg/cm^2, control 6.9 ± 0.2
  Oedema (mg) m ± E.S.: 0.6 ± 0.1 mg
[1]; topical dose 1000 μg/cm^2
  Inhibition (%) of oedema: 94.2%
[1]; topical dose 1000 μg/cm^2, control 6.9 ± 0.2
  Oedema (mg) m ± E.S.: 0.4 ± 0.1 mg
[1]; versus indomethacin
  potency higher than that of the reference drug (comparison between the ID50 values): 50%
[4]
  fibronectin intercellular strands (1:100 scale): 85
[5]; controls 81
  Aggregation from arachidonic acid (0.2 mg/ml): 23
[5]; controls 88
  Aggregation from ADP (4 mM): 32
[5]; controls 100
  Aggregation from collagen (4 μg/ml): 50
